# Assay results from EPA's ToxValDB 9.5 (doi:10.2903/j.efsa.2011.1965).
# Key:
# [1] = tested on: Anas platyrhynchos; settings: for LD50: oral, mortality
# [2] = tested on: Apis mellifera; settings: acute; duration: 48 hours; oral; unspecified; mortality
# [3] = tested on: Colinus virginianus; settings: for LD50: acute, oral, mortality
# [4] = tested on: Cyprinus carpio; settings: acute; duration: 96 hours; mortality
# [5] = tested on: Daphnia magna; settings: chronic/long-term; duration: 21 days; reproduction
# [6] = tested on: Oncorhynchus mykiss; settings: chronic/long-term; duration: 21 days; behavior
# [7] = tested on: Oryctolagus sp.; settings: reproduction developmental; reproduction
# [8] = tested on: Rattus norvegicus
# [9] = tested on: Tagia sp.; settings: acute; duration: 14 days; mortality
# [10] = tested on: Typhlodromus pyri; assay: LR50; higher = less toxic; settings: not reported; mortality
structure (smiles),measurement,setting,value
COc1c(Cl)ccc(Cl)c1C(=O)O [Dicamba],LD50,"[1]; acute, unspecified",1370 mg/kg-day
same,NOEL,[1]; reproductive,89 mg/kg-day
same,LD50,"[1]; short-term, feed",> 1570 mg/kg-day
same,LD50,[2],> 100 µg/piece
same,LD50,[3]; diet,> 995 mg/kg-day
same,LD50,[3],216 mg/kg-day
same,NOEL,[3]; reproduction developmental,170 mg/kg-day
same,LC50,[4],> 100 µg/mL
same,NOEC,[5],97 mg/L
same,NOEC,[6],180 mg/L
same,NOAEL,[7],30 mg/kg-day
same,LD50,"[8]; acute, oral, F, mortality",1580 mg/kg-day
same,NOAEL,"[8]; reproduction developmental, body weight",35 mg/kg-day
same,LC50,[9],> 1000 mg/kg
same,LR50,[10],233 g/ha
